Assay results from US10286000B2, “Retinoid X receptor-gamma agonists and retinoid X receptor-alpha antagonists for treatment of cancer” (St. Jude Children's Research Hospital, Inc., priority 2013, dated 2019).

Assays:
[1] = tested on: ULBP2 surface expression in 293T cells; assay: high-throughput screening of 5600 bioactive compounds, ULBP2 surface expression; format: cell-based, human
TIMP2 and TIMP3 = TIMP2 and TIMP3 ELISA; format: cell-based, human; settings: HCT116, 56 μM 3 days

## CC(=O)S[C@@H]1CC2=CC(=O)CC[C@]2(C)[C@H]2CC[C@@]3(C)[C@@H](CC[C@@]34CCC(=O)O4)[C@H]12 [SPIR, spironolactone]
[1]
  surface expression of ULBP2: significantly increased
TIMP2 and TIMP3
  TIMP2 and TIMP3 in culture supernatant: corresponding increases
